Data published in publication PMC7496275, “Pentathiepins: A Novel Class of Glutathione Peroxidase 1 Inhibitors that Induce Oxidative Stress, Loss of Mitochondrial Membrane Potential and Apoptosis in Human Cancer Cells” (Chemmedchem, 2020).

Legend:
Type in all cases: cell-based, human
Gumbus cells [1] = assay: Cell morphology after incubation; conditions: 25 μM, 6 h
Gumbus cells [2] = assay: Detection of reactive oxygen species (DCF-DA flow cytometry); conditions: 25 μM, 10 min
Text: (§1) It has long been observed that pentathiepins are able to produce reactive oxygen species outside of cells.16, 17, 20 Whether ROS production can also occur in living cells has not yet been reported. To determine if 4 can produce ROS in HL‐60 and Gumbus cells, the cytosolic ROS detector 2′,7′‐dichlorofluorescin diacetate (DCF−DA) was used. […] Thus, pentathiepins appear capable of generating ROS inside living cells within a very short period of time.
(§2) Detection of reactive oxygen species: To detect cellular reactive oxygen species (ROS) a flow cytometry technique based on the use of the ROS‐sensor 2′,7′‐dichlorofluorescin diacetate (DCF‐DA) was used.38 Briefly, cells were collected in reaction tubes and washed with 500 μL phosphate buffered saline (PBS). The cell pellets were resuspended in 1 mL PBS and stained with 2 μL DCF‐DA stock solution (10 mM in DMSO) for 30 min at 37 °C. Then cells were washed with 500 μL PBS and suspended in 1 mL PBS followed by addition of […] 4 ([…]) to a final concentration of 25 μM. After an incubation period of 10 min cells were washed with PBS, resuspended in 500 μL PBS and analyzed by flow cytometry with a MACSQuant Analyzer 10 (Miltenyi Biotec, Germany) set at λ Ex/Em=488/530 nm.

HL-60 cells [3] = assay: as above; conditions: 25 μM, 10 min
Text: as §1, §2

HAP-1 cells = assay: Alkaline comet assay; conditions: 25 μM, 15 min at 0 °C
Procedure: To assess the induction of DNA strand breaks by pentathiepin 4 the Comet Assay was used. The SISO and HAP‐1 cell lines were treated with either 1 % DMF (solvent control), 20 μM H2O2 (positive control) or 25 μM 4 for 15 min at 0 °C. The DNA in the comet head corresponds to still intact genomic DNA while the tail forms due to the damage of nuclear DNA (Figure 9B). […] For HAP‐1 cells a greater reduction of intact DNA from 86 % in control cells to 66 % in pentathiepin‐incubated cells was observed.
Alkaline comet assay to assess induction of DNA strand breaks: The method was adapted from Olive and Banath.40 The alkaline protocol allows for the detection of single and double strand breaks as well as alkali‐labile sites and is based on the different electrophoretic mobility of intact and damaged nuclear DNA. […] The induction of strand breaks creates free charged ends that drift out and form the characteristic comet tail. The percentage of DNA that is located in the comet head was selected as descriptor, which corresponds to the amount of still intact genomic DNA.
Briefly, SISO and HAP‐1 cells were harvested by trypsinization and a single cell suspension with 50 000 cells per mL PBS was prepared. Per condition 50 000 cells were incubated on ice (to impair DNA repair) with either the solvent control DMF (1.0 %), 20 μM H2O2 or 25 μM 4 for 15 min. Afterwards, 400 μL of the cell suspension were mixed with 1.2 mL 1 % low melting point agarose (Carl Roth, Germany) at 40 °C and evenly distributed on agarose‐precoated (GeneOn, Germany) glass slides (Thermo Fisher). After 3 min polymerization the slides were horizontally submerged in lysis buffer (1.2 M NaCl (Carl Roth, Germany), 0.1 % N‐Lauryl‐Sarcosinate (Merck), 0.1 M Na‐EDTA, 0.26 M NaOH) and placed at 4 °C overnight. Before electrophoresis at 0.6 V/cm for 25 min the slides were rinsed three times in rinse/electrophoresis buffer (0.002 M Na‐EDTA, 0.03 M NaOH). Afterwards, the slides were neutralized in distilled water and subsequently stained with 250 μL of a 10 μg/mL PI in water solution for 20 min. Finally, the slides were analyzed with a Leica DMi8 fluorescent microscope and LASX software (Leica, Germany) and comets were scored with CometScore 2.0 (Rex A. Hoover, www.rexhoover.com). At least 100 comets were scored per condition.

Gumbus cells [4] = assay: Western blot analysis of PARP cleavage; conditions: multiple IC50 concentrations, 6 h
Procedure: (§3) Another method for detecting caspase dependent apoptosis is to measure the cleavage of the enzyme poly‐(ADP‐ribose)‐polymerase (PARP) by western blotting. After an apoptotic stimulus, caspases, e. g. caspase‐3 and caspase‐7, cleave PARP, resulting in a loss of its function to mediate DNA‐repair processes. Cells were incubated with multiple IC50 concentrations of 4 for 6 and 24 h. […] Thus, pentathiepin 4 appears to induce the caspase dependent induction of apoptosis.
(§4) Western blot analysis of PARP: For western blot analysis the Biorad system with “Mini‐Protean® TGX Stain‐Fee™ Gels” and “Trans‐Blot® Turbo™ Transfer Pack Mini” PVDF‐membranes were used (Biorad, Germany). Protein lysates for analysis were prepared by seeding out 10^6 cells into T25 flasks and incubated with 4 in multiple concentrations of the viability IC50 for 6 and 24 h. […] Lysates were centrifuged at 18 000 g for 10 min at 4 °C and protein content was determined by the Bradford method against bovine serum albumin (BSA) as standard. […] Protein bands were detected with Clarity™ Western ECL Substrate (Biorad) and recorded by an Advanced Fluorescence Imager (INTAS, Germany).

HL-60 cells [5] = assay: Western blot analysis of PARP cleavage; conditions: multiple IC50 concentrations, 6 h
Procedure: as §3, §4

Which change in morphology (Gumbus cells [1]) does the source give for `CCOc1c2c(c3cnc4cc(C)c(C)cc4n13)SSSSS2` [Compound 4] here?
The change in morphology was “membrane blebbing”.

What about the ROS formation (Gumbus cells [2]) of the same compound?
Its ROS formation is “significant burst of ROS”.

What about the ROS formation (HL-60 cells [3]) of the same compound?
Its ROS formation is “rapid but not as intense as with the Gumbus line”.

And the “percentage of intact DNA in comet head” value (HAP-1 cells)?
Its value is 66%.

And the PARP cleavage (Gumbus cells [4])?
The PARP cleavage was “cleavage of PARP was detectable”.

And the PARP cleavage (HL-60 cells [5])?
The PARP cleavage was “cleavage of PARP was detectable”.
